Test system: MatLyLu mouse prostate cancer cells
Assay: Apoptosis of camptothecin-pretreated MatLyLu cells verified by conventional flow cytometry (FITC-annexin V / propidium iodide)
Type: cell-based
Settings: MatLyLu cells pretreated with camptothecin
Experimental: MatLyLu […] prostate cancer cells pretreated with camptothecin were employed as a positive control. It was verified by conventional flow cytometry that more than about 80% of the camptothecin-treated cells undergo apoptosis (i.e. >80% of the treated cells were FITC-annexin V^+ positive and propidium iodide negative). The camptothecin-treated cells were then labeled with the AF647-conjugated annexin-V and injected intravenously into the mouse. The circulating annexin-V^+ cells were measured by focusing a He—Ne laser beam having a wavelength of 633 nm through a slit onto an ear vessel (typically a small artery) and confocally detecting the fluorescent bursts (peaks) as individual cells flowed through the probe beam. The emitted fluorescence was detected by a photomultiplier tube and was digitized for analysis. The confocal detection of the emitted fluorescence allowed continuous monitoring over the measurement period of the labeled cells flowing through the vessel.

CC[C@@]1(O)C(=O)OCc2c1cc1n(c2=O)Cc2cc3ccccc3nc2-1 [camptothecin]
treated cells undergoing apoptosis (FITC-annexin V positive and propidium iodide negative): more than 80%

Source: patent publication US8211660B2, “In-vivo monitoring of circulating apoptotic cells” (The General Hospital Corporation, priority 2004, dated 2012)
